Laboratory results as given in PMC10535256 (ACS Omega, 2023).

Biological target: PehR (Ralstonia pseudosolanacearum, UniProt Q8XVM3)
Assay: biochemical

Sequence of PehR (Q8XVM3 1-570): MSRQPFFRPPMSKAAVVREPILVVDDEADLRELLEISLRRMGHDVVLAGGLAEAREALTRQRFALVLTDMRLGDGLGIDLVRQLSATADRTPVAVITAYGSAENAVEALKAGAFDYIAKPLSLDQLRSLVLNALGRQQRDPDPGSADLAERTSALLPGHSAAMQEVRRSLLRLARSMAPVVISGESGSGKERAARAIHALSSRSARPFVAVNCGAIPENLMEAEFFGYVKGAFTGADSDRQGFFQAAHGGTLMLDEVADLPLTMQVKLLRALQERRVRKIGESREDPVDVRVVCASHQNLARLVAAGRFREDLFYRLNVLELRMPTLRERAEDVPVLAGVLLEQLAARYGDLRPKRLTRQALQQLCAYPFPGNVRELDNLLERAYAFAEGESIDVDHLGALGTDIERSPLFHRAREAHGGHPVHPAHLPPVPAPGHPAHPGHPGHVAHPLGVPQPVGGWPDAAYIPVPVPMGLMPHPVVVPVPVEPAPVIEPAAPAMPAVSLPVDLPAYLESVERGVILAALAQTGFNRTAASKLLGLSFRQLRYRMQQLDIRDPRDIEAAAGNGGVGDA

Q: `Nc1ncnc2c1ncn2[C@@H]1O[C@H](COP(=O)(O)OP(=O)(O)OP(=O)(O)O)[C@H]2OC3(O[C@H]21)C([N+](=O)[O-])=CC(=[N+]([O-])O)C=C3[N+](=O)[O-]` (stereo partly shown) [TNP-ATP] was tested. Which Kd did it give?
A: 106 µM
